Columns and labels:
HBL-100 (breast) = assay: Antiproliferative activity, HBL-100; type: cell-based, human; conditions: Homo sapiens
Protocol: (§1) The in vitro antiproliferative activity of investigated compounds was evaluated against six human solid tumor cell lines: A549 (non-small cell lung), HBL-100, (breast), HeLa (cervix), SW1573 (non-small cell lung), as drug sensitive lines, T-47D (breast) and WiDr (colon) as drug resistant lines. These cell lines were a kind gift from Prof. G. J. Peters (VU Medical Center, Amsterdam, The Netherlands). For selectivity studies, the human fibroblasts BJ-hTert cell line was used, which was obtained from Dr. R. Freire (HUC, Tenerife, Canary Islands). Cells were kept in culture medium under standard conditions: RPMI 1640 medium, fetal bovine serum (5%), glutamine (2 mM), penicillin G (100 units/mL) and streptomycin (0.1 mg/mL). Antiproliferative tests were conducted as described earlier (Skehan et al., [1990]; Miranda et al., [2006]). Tested compounds were dissolved in DMSO at an initial concentration of 40 mM. DMSO was used as negative control (0.25% v/v). Antiproliferative activity of the compounds was expressed as GI50, which is the concentration of the compound that inhibits 50% of the culture growth.

T-47D (breast) = assay: Antiproliferative activity, T-47D; type: cell-based, human; conditions: for GI50: Homo sapiens, T47D
Protocol: as §1

WiDr (colon) = assay: Antiproliferative activity, WiDr; type: cell-based, human; conditions: for GI50: Homo sapiens
Protocol: as §1

HeLa (cervix) = assay: Antiproliferative activity, HeLa; type: cell-based, human; conditions: Homo sapiens
Protocol: as §1

[1] = tested on: SW1573 (non-small cell lung); assay: Antiproliferative activity, SW1573; type: cell-based, human; conditions: Homo sapiens
Protocol: as §1

[2] = tested on: A549 (non-small cell lung); assay: Antiproliferative activity, A549; type: cell-based, human; conditions: Homo sapiens
Protocol: as §1

[3] = tested on: human fibroblasts BJ-hTert cell line; assay: Selectivity, non-transformed fibroblasts BJ-hTert; type: cell-based; conditions: Fibroblast; BJ-hTert normal human cell line; concentrations up to 100 μM
Protocol: as §1

MAO B = molecular target: T1, MAO B (Homo sapiens, UniProt P27338); assay: MAO B inhibition, discontinuous fluorimetric kynuramine assay; type: biochemical; conditions: for inhibition at 1 µM: 1 μM inhibitor, mean ± SD, n = 2, normalized to control
T1 construct: purchased Sigma-Aldrich
T1 sequence (P27338 1-520): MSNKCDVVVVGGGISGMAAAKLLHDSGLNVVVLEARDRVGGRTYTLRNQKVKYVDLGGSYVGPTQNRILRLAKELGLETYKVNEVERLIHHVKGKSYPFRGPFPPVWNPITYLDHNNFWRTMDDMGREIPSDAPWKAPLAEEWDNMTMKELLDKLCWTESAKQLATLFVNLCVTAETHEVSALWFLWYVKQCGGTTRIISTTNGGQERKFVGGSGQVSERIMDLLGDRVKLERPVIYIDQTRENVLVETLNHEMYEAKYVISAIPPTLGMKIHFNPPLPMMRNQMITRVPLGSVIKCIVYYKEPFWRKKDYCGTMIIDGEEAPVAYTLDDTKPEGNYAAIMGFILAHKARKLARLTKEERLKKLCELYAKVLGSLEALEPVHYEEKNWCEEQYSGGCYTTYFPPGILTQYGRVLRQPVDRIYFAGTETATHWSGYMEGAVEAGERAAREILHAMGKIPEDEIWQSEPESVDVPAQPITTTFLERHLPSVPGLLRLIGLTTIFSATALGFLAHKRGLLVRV
Protocol: (§2) MAO A and B inhibition capacities were investigated using a discontinuous fluorimetric assay (Meiring et al., [2013]) as described previously by using human recombinant membrane-bound MAO purchased from Sigma-Aldrich (Affini et al., [2018]). Briefly, remained enzyme activity with inhibitor, either 1 μM (one-point) or concentrations ranging from 0.0001 to 10 μM, was assessed in the presence of kynuramine [2 × KM, KM = 20 μM (MAO A), KM = 30 μM (MAO B)] in potassium phosphate buffer (pH 7.4). Reactions were started by addition of enzyme and stopped by manual addition of sodium hydroxide (2 N) after 20 min. Enzyme activity was determined by detection of 4-hydroxyquinoline (λEx = 320 nm, λEm = 405 nm). Data were analyzed using GraphPad PRISM 6. For one-point measurements data were calculated as percentage of control and expressed as mean ± standard deviation (%). […] Data were obtained from two (one-point measurements) or at least three (IC50 values) independent experiments, each performed in duplicates.

[4] = Total antioxidant capacity (TAOC), modified phosphomolybdenum method; conditions: concentration providing 0.500 of absorbance at 695 nm; mean ± SD, n = 3
Protocol: (§3) Volume of 0.4 mL of sample solution (50–1,000 μM) was mixed with 1.6 mL of reagent solution [0.6 M H2SO4, 28 mM Na3PO4, and 4 mM (NH4)2MoO4] and resulting mixtures were incubated at 95°C for 90 min. The cooled reaction mixtures were then centrifuged for 10 min (3,000 rpm). The absorbance of the supernatant solution was measured, 1 h after centrifugation, at 695 nm against reagent solution as blank. An increased absorbance in reading in both assays indicated increased antioxidant power, expressed as EC50 values (the sample concentration giving absorbance of 0.500 from the graph of absorbance at 700 nm or 695 nm against compound concentration) (Prieto et al., [1999]).

MAO A = molecular target: T2, MAO A (Homo sapiens, UniProt P21397); assay: MAO A inhibition, discontinuous fluorimetric kynuramine assay; type: biochemical; conditions: for inhibition at 1 µM: 1 μM inhibitor, mean ± SD, n = 2, normalized to control
T2 construct: purchased Sigma-Aldrich
T2 sequence (P21397 1-527): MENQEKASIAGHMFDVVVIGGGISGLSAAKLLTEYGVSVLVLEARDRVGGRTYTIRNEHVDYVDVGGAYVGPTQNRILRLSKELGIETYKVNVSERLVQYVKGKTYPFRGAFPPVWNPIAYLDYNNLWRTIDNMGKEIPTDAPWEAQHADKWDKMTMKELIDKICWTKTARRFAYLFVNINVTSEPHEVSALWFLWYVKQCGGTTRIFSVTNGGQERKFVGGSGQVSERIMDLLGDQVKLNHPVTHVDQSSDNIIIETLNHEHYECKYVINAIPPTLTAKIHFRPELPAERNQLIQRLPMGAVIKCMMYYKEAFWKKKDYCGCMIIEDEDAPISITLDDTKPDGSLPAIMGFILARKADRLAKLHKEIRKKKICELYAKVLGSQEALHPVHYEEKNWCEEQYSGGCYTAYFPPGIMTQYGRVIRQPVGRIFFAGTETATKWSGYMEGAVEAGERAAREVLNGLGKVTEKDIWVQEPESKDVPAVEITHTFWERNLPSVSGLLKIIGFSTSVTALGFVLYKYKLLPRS
Protocol: as §2

[5] = DPPH scavenging antioxidant assay; conditions: concentration providing 50% of radicals scavenging activity; mean ± SD, n = 3
Protocol: The experiments were performed according to the literature protocol (Prior et al., [2005]). All tested compounds were initially dissolved in DMSO. The initial concentration of DPPH in methanol was 6.58 × 10^−5 M. A volume of 140 μL of DPPH solution was placed into a 96-well microplate, and then 10 μL solution of the tested compounds was added. Pure DMSO (10 μL) was used as the control. The absorbance at 517 nm was measured after 30 min period of incubation in the dark at 25°C. The Equation (1) was used for calculation of the scavenging activity:
(1) Scavenging activity (%)=Acontrol- Asample/Acontrol×100
where Asample and Acontrol refer to the absorbances at 517 nm of the sample and control, respectively. IC50 values were calculated from the graph of scavenging activity against the concentrations of the samples. IC50 represents the total antioxidant concentration of the sample which decreases the amount of the initial DPPH radical by 50%. Ascorbic acid (vitamin C) was used as positive control (concentration range 10–500 μM).

[6] = Total reducing power (TRP), modified potassium ferricyanide reduction method; conditions: concentration providing 0.500 of absorbance at 700 nm; mean ± SD, n = 3
Protocol: The mixture containing 0.5 mL of phosphate buffer (0.2 M, pH = 6.6), 0.5 mL of K3[Fe(CN)6] (1%; w/v) and 0.5 mL of the samples (100–1,500 μM) was incubated at 50°C for 20 min. A volume of 0.5 mL of trichloroacetic acid (TCA, 10%; w/v), 0.5 mL of Milli-Q water and 0.5 mL of FeCl3 (0.1%; w/v) was added, followed by intensive vortexing. The absorbance of the resulting mixture was measured after 60 min at 700 nm using phosphate buffer as blank (Oyaizu, [1986]).
as §3

[7] = tested on: six human solid tumor cell lines; assay: Antiproliferative activity, panel as a whole; type: cell-based; design: key: moderate activity (GI50 = 10–100 μM); good activity (GI50 = 1–10 μM); inactive (GI50 > 100 μM)
Protocol: as §1

[8] = mean, 95% CI, at least three experiments

GI50 (T-47D (breast)) [µM] | Structure (SMILES) | GI50 (HBL-100 (breast)) [µM] | GI50 (WiDr (colon)) [µM] | GI50 (HeLa (cervix)) [µM] | GI50 [1] [µM] | GI50 [2] [µM] | GI50 [3] [µM] | GI50 (T-47D (breast); T-47D) [µM] | inhibition at 1 µM (MAO B) [%] | EC50 [4] [µM] | inhibition at 1 µM (MAO A) [%] | melting point [°C] | IC50 [5] [µM] | EC50 [6] [µM] | antiproliferative activity class against five cell lines ([7]; five cell lines of the six) | antiproliferative activity class T-47D (T-47D (breast); T-47D) | IC50 (MAO B; [8]) [µM] | antiproliferative activity class WiDr (WiDr (colon)) | IC50 (MAO A; [8]) [µM] | antiproliferative activity class against all six cell lines ([7]; all six cell lines)
47 ± 18 | O=c1[nH]cc(F)c(=O)[nH]1 [5-fluorouracil, reference compound] | 4 ± 0.7 | 49 ± 6.7 | 15 ± 4.7 | 4.6 ± 1.5 | > 100 | 5.5 ± 0.5 |  |  |  |  |  |  |  |  |  |  |  |  | 
 | Cc1ccc(-c2c[se]c(NN=Cc3ccccc3)n2)cc1 [Compound 1-Me, 2-(2-benzylidenehydrazinyl)-4-(p-tolyl)-1,3-selenazole] | > 100 | > 100 | > 100 | 47 ± 3 | > 100 | > 100 | > 100 | 23.4 ± 17.1 | 603 ± 61 | 12.7 ± 3.5 | 174 to 176 | 45.1 ± 6.53 | 966 ± 88 | inactive |  |  |  |  | 
 | O=[N+]([O-])c1ccc(C=NNc2nc(-c3ccccc3)c[se]2)cc1 [Compound 4, 2-(2-(4-nitrobenzylidene)hydrazinyl)-4-phenyl-1,3-selenazole] | > 100 | 6.9 ± 1.3 | 31 ± 8.5 | 23 ± 1.2 | 16 ± 3.5 | > 100 | 6.3 ± 1.1 | 96.3 ± 0.5 | 433 ± 43 | 71.9 ± 3.5 |  | 44.8 ± 2.3 | 376 ± 51 |  | good activity (good activity (GI50 = 1–10 μM)) | 0.073 | good activity (good activity (GI50 = 1–10 μM)) | 0.258 | 
 | Cc1ccc(-c2c[se]c(NN=Cc3ccc([N+](=O)[O-])cc3)n2)cc1 [Compound 4-Me, 2-(2-(4-nitrobenzylidene)hydrazinyl)-4-(p-tolyl)-1,3-selenazole] | > 100 | > 100 | > 100 | > 100 | > 100 | > 100 | > 100 | 48.1 ± 2.9 | 579 ± 51 | 22.1 ± 2.1 | 228 to 230 | 40.1 ± 4.7 | 495 ± 48 |  |  |  |  |  | inactive
 | COc1ccc(-c2c[se]c(NN=Cc3ccc([N+](=O)[O-])cc3)n2)cc1 [Compound 4-OMe, 4-(4-methoxyphenyl)-2-(2-(4-nitrobenzylidene)hydrazinyl)-1,3-selenazole] | 47 ± 13 | > 100 | 33 ± 10 | 26 ± 17 | 16 ± 5.3 | > 100 | 66 ± 17 | 42.5 ± 19 | 645 ± 53 | 49.4 ± 1.3 | 208 to 211 | 79.2 ± 3.9 | 398 ± 44 |  |  |  |  |  | 
 | O=C1O[C@H]([C@@H](O)CO)C(O)=C1O [vitamin C, Ascorbic acid, reference compound] |  |  |  |  |  |  |  |  | 140 ± 10 |  |  | 79.1 ± 1.8 | 155 ± 39 |  |  |  |  |  | 
